Measured values as given in patent US9265771B2, “Method for treating Lyme disease” (Zoetis Services LLC, priority 2012, dated 2016).

Legend:
Type in all cases: in vivo, beagle dogs
[1] = test system: B. burgdorferi outer surface protein OspC; assay: Study B: fluorescent-bead-based multiplex assay, antibodies against OspC; conditions: Day 111
Description: (§1) Thirty-two (18 male and 14 female) beagle dogs were sero-negative for Borrelia burgdorferi, not vaccinated with any Borrelia spp vaccines, and acclimated at the study facility for seven days. The study was conducted under National Research Council guidelines (1996). […] Field-caught Ixodes from the northeast USA were placed on the dogs without containment chambers for 10 days; after ticks fed to repletion, dogs were treated with two applications of an approved topical acaricide with a 30-day interval between applications.
Forty days post-challenge, and prior to antibiotic treatments, blood was collected from each dog as were two skin biopsy punch samples near tick attachment sites. Blood was collected approximately monthly post-treatment. Skin biopsies were taken near the tick attachment site on Days 48/49, 118, 146, 180, and 315. Serum antibodies to Borrelia were assayed using the IDEXX SNAP-4Dx and QC6 ELISA. In cooperation with Cornell University, serum samples were analyzed using fluorescent-bead-based multiplex assays detecting antibodies against B. burgdorferi outer surface proteins OspA, OspC, and OspF. Data were expressed as median fluorescent intensities (MFI), and shown to be specific and sensitive to provide interpretative guidelines regarding infection. The skin biopsies were collected for a polymerase chain reaction (PCR; FlaB) assay and cultured for spirochete detection. […]

B. burgdorferi [2] = assay: Study A: Quantitative C6 (QC6) antibody ELISA in tick-infected dogs; conditions: Convenia Rx Days 83 and 97
Source text: Three outer surface proteins (Osp) on B. burgdorferi are important for diagnosis and prevention, and are expressed by the organism in response to its local environment. […] OspF is another surface protein that is generally observed in late-stage disease. The C in […] refers to a 25-amino acid, C6 peptide in the sixth invariable region of an outer membrane lipoprotein (VIsE). Antibody against C6 is highly accurate as a serologic diagnosis of Lyme disease independent of a subject's (e.g., canine) vaccination status. Further, the generation of C6 antibodies implies an active infection with viable spirochetes. Serological methods for detecting B. burgdorfer/Lyme disease were conducted using the IDEXX qualitative SNAP-4Dx ELISA and the Quantitative C6 (Quant C6 or QC6) diagnostic kits, which are enzyme linked immunosorbent assays against the previously described 25-amino-acid C6 peptide. QC6 ELISA data, units/mL, are useful for guidance in initiating and evaluating response to therapy (See Levy S A, O'Connor T P, Hanscom J L, Shields P, et al. Quantitative measurement of a C6 antibody following antibiotic treatment of Borrelia burgdorferi antibody-positive, nonclinical dogs. Clin Vacc Immunol 2008; 15(1):115-119 and Littman M P, Goldstein R E, Labato M A, et al. ACVIM Small Animal Concensus Statement on Lyme Disease in Dogs: Diagnosis, Treatment and Prevention. J Vet Intern Med 2006; 20: 422-434).
Twenty-three adult female beagle dogs were used in this study; all were sero-negative for Borrelia, not vaccinated with any Borrelia spp vaccines, and acclimated at the study facility for seven days prior to any study activities. The study was conducted under National Research Council guidelines (1996. Dogs were randomized to a non-infected control (n=7 dogs) group, or infected groups (n=8 dogs/region) using ticks from two regions of the USA, Region A (New England (NE), i.e., Rhode Island) and Region B (Midwest (MW), i.e., Wisconsin). Dogs were infected on Day 0 with up to 30 Ixodes scapularis ticks per dog. Tick attachment was monitored daily and after nine days, remaining ticks were harvested and all dogs were treated with two topical applications of an approved acaricide observing a 30-day interval between applications. Dogs were monitored 21-days post-challenge for pyrexia, and the entire post-challenge period for clinical signs of Lyme disease (lameness, ataxia, anorexia, lymphadenopathy and depression).
Blood was collected from each dog weekly to Day 28, then every two-weeks for the remainder of the study (166 days). Serum antibodies to Borrelia were assayed using SNAP-4Dx and QC6 ELISA. Two skin punch biopsies were collected near tick attachment sites from each dog every 28 days post-challenge for bacterial culture.
Comparisons included serology, skin culture results and joint pathology.

B. burgdorferi [3] = assay: Study B: microscopic examination of joints and skin at necropsy; conditions: for Number of Joints with Changes as Described for Lyme disease: N = 8
Description: as §1
Forty days post-challenge, and prior to antibiotic treatments, blood was collected from each dog as were two skin biopsy punch samples near tick attachment sites. Blood was collected approximately monthly post-treatment. Skin biopsies were taken near the tick attachment site on Days 48/49, 118, 146, 180, and 315. Serum antibodies to Borrelia were assayed using the IDEXX SNAP-4Dx and QC6 ELISA. In cooperation with Cornell University, serum samples were analyzed using fluorescent-bead-based multiplex assays detecting antibodies against B. burgdorferi outer surface proteins OspA, OspC, and OspF. Data were expressed as median fluorescent intensities (MFI), and shown to be specific and sensitive to provide interpretative guidelines regarding infection. The skin biopsies were collected for a polymerase chain reaction (PCR; FlaB) assay and cultured for spirochete detection. At the end of the study, blood and skin biopsies were collected and synovial tissue from the joints were harvested at necropsy.
On Day 75 and Day 89 Convenia was administered to the eight dogs in T04 (8 mg/kg bodyweight; subcutaneous injection). The other treated groups received their respective regimens daily and orally for 30 days from Days 75 to 104. […] Dogs in T01 served as infected, untreated, controls. Inter-treatment comparisons to evaluate antibiotic efficacy included clinical signs, serology, culture results and pathology.
At necropsy ten joints were harvested per each dog, formalin-fixed, stained and examined microscopically. Joints included the carpus, elbow, shoulder, stifle and tarsus on both the right and left limbs. Further, a section of skin near tick attachment sites was evaluated from each dog. There were two dogs in the Convenia group (25%) with tissues showing changes as described for Lyme disease, compared to seven controls (87.5%) and three (37.5%) to four (50.0%) dogs in the other antibiotic-treated groups (Table 7). […] The Convenia group had the lowest incidence of joint changes with six affected of 80.

[4] = joints, skin, 8 dogs/group, necropsy

SMILES: CO/N=C(\C(=O)N[C@@H]1C(=O)N2C(C(=O)[O-])=C([C@@H]3CCCO3)CS[C@H]12)c1csc(N)n1.[Na+] [Convenia, (6R,7R)-7-[[(2Z)-(2-amino-4-thiazolyl)(methoxyimino)acetyl]-amino]-8-oxo-3-[(2S)-tetrahydro-2-furanyl]-5-thia-1-azabicyclo[4.2.0]oct-2-ene-2-carboxylic acid, monosodium salt]
- Number of dogs above infected threshold (antibody-OspC) [1]: one
- Mean QC6 Antibody Levels (B. burgdorferi [2]; Group 4 Control (no ticks), Day 0): 0 U/mL
- Mean QC6 Antibody Levels (B. burgdorferi [2]; Group 4 Control (no ticks), Day 7): 0 U/mL
- Mean QC6 Antibody Levels (B. burgdorferi [2]; Group 4 Control (no ticks), Day 20): 0 U/mL
- Mean QC6 Antibody Levels (B. burgdorferi [2]; Group 4 Control (no ticks), Day 27): 0 U/mL
- Mean QC6 Antibody Levels (B. burgdorferi [2]; Group 4 Control (no ticks), Day 41): 0 U/mL
- Mean QC6 Antibody Levels (B. burgdorferi [2]; Group 4 Control (no ticks), Day 54): 0 U/mL
- Mean QC6 Antibody Levels (B. burgdorferi [2]; Group 4 Control (no ticks), Day 69): 0 U/mL
- Mean QC6 Antibody Levels (B. burgdorferi [2]; Group 4 Control (no ticks), Day 83): 0 U/mL
- Mean QC6 Antibody Levels (B. burgdorferi [2]; Group 4 Control (no ticks), Day 97): 0 U/mL
- Mean QC6 Antibody Levels (B. burgdorferi [2]; Group 4 Control (no ticks), Day 111): 0 U/mL
- Mean QC6 Antibody Levels (B. burgdorferi [2]; Group 4 Control (no ticks), Day 125): 0 U/mL
- Mean QC6 Antibody Levels (B. burgdorferi [2]; Group 4 Control (no ticks), Day 138): 0 U/mL
- Mean QC6 Antibody Levels (B. burgdorferi [2]; Group 4 Control (no ticks), Day 153): 0 U/mL
- Mean QC6 Antibody Levels (B. burgdorferi [2]; Group 4 Control (no ticks), Day 166): 0 U/mL
- Mean QC6 Antibody Levels (B. burgdorferi [2]; Group 5 NE Ticks, Day 0 (infestation)): 0 U/mL
- Mean QC6 Antibody Levels (B. burgdorferi [2]; Group 5 NE Ticks, Day 7 (pre-treatment)): 0 U/mL
- Mean QC6 Antibody Levels (B. burgdorferi [2]; Group 5 NE Ticks, Day 20 (pre-treatment)): 148.5 U/mL
- Mean QC6 Antibody Levels (B. burgdorferi [2]; Group 5 NE Ticks, Day 27 (pre-treatment)): 148.75 U/mL
- Mean QC6 Antibody Levels (B. burgdorferi [2]; Group 5 NE Ticks, Day 41 (pre-treatment)): 239.25 U/mL
- Mean QC6 Antibody Levels (B. burgdorferi [2]; Group 5 NE Ticks, Day 54 (pre-treatment)): 209.5 U/mL
- Mean QC6 Antibody Levels (B. burgdorferi [2]; Group 5 NE Ticks, Day 69 (pre-treatment)): 270.75 U/mL
- Mean QC6 Antibody Levels (B. burgdorferi [2]; Group 5 NE Ticks, Day 83 (first dose)): 122 U/mL
- Mean QC6 Antibody Levels (B. burgdorferi [2]; Group 5 NE Ticks, Day 97 (second dose)): 99.5 U/mL
- Mean QC6 Antibody Levels (B. burgdorferi [2]; Group 5 NE Ticks, Day 111): 48.25 U/mL
- Mean QC6 Antibody Levels (B. burgdorferi [2]; Group 5 NE Ticks, Day 125): 20.5 U/mL
- Mean QC6 Antibody Levels (B. burgdorferi [2]; Group 5 NE Ticks, Day 138): 7.75 U/mL
- Mean QC6 Antibody Levels (B. burgdorferi [2]; Group 5 NE Ticks, Day 153): 4.25 U/mL
- Mean QC6 Antibody Levels (B. burgdorferi [2]; Group 5 NE Ticks, Day 166): 3 U/mL
- Mean QC6 Antibody Levels (B. burgdorferi [2]; Group 6 MW Ticks, Day 0 (infestation)): 0 U/mL
- Mean QC6 Antibody Levels (B. burgdorferi [2]; Group 6 MW Ticks, Day 7 (pre-treatment)): 0 U/mL
- Mean QC6 Antibody Levels (B. burgdorferi [2]; Group 6 MW Ticks, Day 20 (pre-treatment)): 66.5 U/mL
- Mean QC6 Antibody Levels (B. burgdorferi [2]; Group 6 MW Ticks, Day 27 (pre-treatment)): 155 U/mL
- Mean QC6 Antibody Levels (B. burgdorferi [2]; Group 6 MW Ticks, Day 41 (pre-treatment)): 147.25 U/mL
- Mean QC6 Antibody Levels (B. burgdorferi [2]; Group 6 MW Ticks, Day 54 (pre-treatment)): 149.25 U/mL
- Mean QC6 Antibody Levels (B. burgdorferi [2]; Group 6 MW Ticks, Day 69 (pre-treatment)): 110.75 U/mL
- Mean QC6 Antibody Levels (B. burgdorferi [2]; Group 6 MW Ticks, Day 83 (first dose)): 93.75 U/mL
- Mean QC6 Antibody Levels (B. burgdorferi [2]; Group 6 MW Ticks, Day 97 (second dose)): 74.25 U/mL
- Mean QC6 Antibody Levels (B. burgdorferi [2]; Group 6 MW Ticks, Day 111): 51.5 U/mL
- Mean QC6 Antibody Levels (B. burgdorferi [2]; Group 6 MW Ticks, Day 125): 29 U/mL
- Mean QC6 Antibody Levels (B. burgdorferi [2]; Group 6 MW Ticks, Day 138): 22 U/mL
- Mean QC6 Antibody Levels (B. burgdorferi [2]; Group 6 MW Ticks, Day 153): 8.25 U/mL
- Mean QC6 Antibody Levels (B. burgdorferi [2]; Group 6 MW Ticks, Day 166): 6.5 U/mL
- Number of Joints with Changes as Described for Lyme disease, Cumulative (B. burgdorferi [3]; 80 total/group): 6
- Number of Joints with Changes as Described for Lyme disease (B. burgdorferi [3]; Carpus L): 1
- Number of Joints with Changes as Described for Lyme disease (B. burgdorferi [3]; Carpus R): 1
- Number of Joints with Changes as Described for Lyme disease (B. burgdorferi [3]; Elbow L): 0
- Number of Joints with Changes as Described for Lyme disease (B. burgdorferi [3]; Elbow R): 1
- Number of Joints with Changes as Described for Lyme disease (B. burgdorferi [3]; Shoulder L): 0
- Number of Joints with Changes as Described for Lyme disease (B. burgdorferi [3]; Shoulder R): 0
- Number of Joints with Changes as Described for Lyme disease (B. burgdorferi [3]; Stifle L): 1
- Number of Joints with Changes as Described for Lyme disease (B. burgdorferi [3]; Stifle R): 2
- Number of Joints with Changes as Described for Lyme disease (B. burgdorferi [3]; Tarsus L): 0
- Number of Joints with Changes as Described for Lyme disease (B. burgdorferi [3]; Tarsus R): 0
- No Tissue Changes, # Dogs (B. burgdorferi [3]; [4]): 6
- No Tissue Changes, % (B. burgdorferi [3]; [4]): 75%
- Tissue Changes Described for Lyme Disease, # Dogs (B. burgdorferi [3]; [4]): two
- Tissue Changes Described for Lyme Disease, % (B. burgdorferi [3]; [4]): 25%
- Tissue Changes Described for Lyme Disease, # Dogs (B. burgdorferi [3]; joints, skin, 8 dogs/group, necropsy, listed as T04, monosodium salt): 2
- Incidence of joint lesions, lower than in dogs administered doxycycline or amoxicillin orally for 30 days (B. burgdorferi [3]; microscopic evaluation of articular joints): 2 fold
